Results as given in patent publication US8088761B2, “Enzyme inhibitors” (Cancer Research Technology Limited, priority 2005, dated 2012).
pIC50: −log10 of the molar value. Where two headings read alike, the source gives them in different places.

Columns and labels:
[1] = test system: HCT116 cells; experiment: Cell viability assay (MTT) in HCT116 cell line; type: cell-based; details: Homo sapiens, HCT-116, 72 hrs, IC50 range, read-out: HCT116 cell growth inhibition
Experimental: Cell Viability Assay: Determination of IC50 of Aurora Inhibitors in HCT116 Cell Line Using MTT Assay. The effects of compounds of the Examples on cellular proliferation were determined using the MTT assay according to manufacturer's instructions (Sigma). Briefly, the human colon tumour cells HCT116, were seeded in triplicate into 96-well plates at 2500 cells/well 24 hours before treatment with a range of concentrations of Aurora inhibitors (0-50 μM). After 72 hrs, 15 μl/well of 0.5% 3-(4,5-dimethylthiazol-2-yl)-2,5-diphenyltetrazolium bromide (MTT) was added to the cells for 4 hrs at 37° C., the dye-stained viable cells were extracted by adding 150 μl/well of dimethyl sulphoxide (DMSO). […] The IC50 was calculated using the Prism software.

[2] = molecular target: T1, Aurora-A (Homo sapiens, UniProt O14965); experiment: Flashplate Aurora A enzyme inhibition assay; type: biochemical
T1 sequence (O14965 1-403): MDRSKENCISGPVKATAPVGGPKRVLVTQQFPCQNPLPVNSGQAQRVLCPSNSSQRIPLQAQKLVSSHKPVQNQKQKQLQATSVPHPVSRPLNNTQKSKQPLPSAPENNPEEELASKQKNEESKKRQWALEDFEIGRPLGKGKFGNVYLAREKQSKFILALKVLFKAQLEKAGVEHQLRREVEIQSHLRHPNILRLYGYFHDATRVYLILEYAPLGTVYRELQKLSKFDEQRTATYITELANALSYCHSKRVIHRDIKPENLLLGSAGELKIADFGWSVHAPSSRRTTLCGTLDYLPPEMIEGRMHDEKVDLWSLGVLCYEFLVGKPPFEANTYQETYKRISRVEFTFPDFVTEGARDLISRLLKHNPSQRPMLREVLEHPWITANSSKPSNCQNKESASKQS
Experimental: Flashplate® Assay for Identification and Evaluation of Aurora-A Inhibitors
On this assay 384-well Basic Flashplate® (SMP400E, PerkinElmer) as solid assay platform was used. The plates were coated overnight at 4° C. with […] at 100 μg/ml in PBS buffer and used after being washed twice with PBS. 5 μl of compound in 2% DMSO was added to each well followed by 15 μl master mix of kinase buffer (50 mM Tris pH 7.5, 10 mM NaCl, 2.5 mM MgCl2, 1 mM […], 20 μM ATP, and 0.025 μCi/μl ^33P-ATP). Finally, 250 ng per well of Aurora-A enzyme was added. The plate was shaken for approximately 2 min on a flat-bed plate shaker (Wellmix, Denley, UK) and incubated for 2 hours at room temperature. The reaction was stopped by washing the plate twice on a 16-pin wash (ELX50 BioTek Instruments Ltd., Northstar, Bedford, UK) with 10 mM sodium pyrophosphate. The plate was then read on a TopCount-NX™ (PerkinElmer Life Sciences UK Ltd., Hounslow, UK).

[3] = Flashplate assay, IC50 range, read-out: Aurora-A inhibition

| Structure (SMILES) | pIC50 [1] | pIC50 [2, 3] | pIC50 [2] |
| --- | --- | --- | --- |
| O=C(CN1CCN(c2c(Br)cnc3[nH]c(-c4ccccc4)nc23)CC1)Nc1nccs1 [Example 5, 2-[4-(6-Bromo-2-phenyl-3H-imidazo[4,5-b]pyridin-7-yl)-piperazin-1-yl]-N-thiazol-2-yl-acetamide] | 4.30 to 5.70 | > 6.30 | – |
| NCc1ccc(-c2nc3c(N4CCN(CC(=O)Nc5nccs5)CC4)c(Br)cnc3[nH]2)cc1 [Example 7, 2-{4-[2-(4-Aminomethyl-phenyl)-6-bromo-3H-imidazo[4,5-b]pyridin-7-yl]-piperazin-1-yl}-N-thiazol-2-yl-acetamide] | 5.70 to 6.30 | > 6.30 | – |
| CN(C)Cc1ccc(-c2nc3c(N4CCN(CC(=O)Nc5nccs5)CC4)c(Br)cnc3[nH]2)cc1 [Example 8, 2-{4-[6-Bromo-2-(4-dimethylaminomethyl-phenyl)-3H-imidazo[4,5-b]pyridin-7-yl]-piperazin-1-yl}-N-thiazol-2-yl-acetamide] | 5.70 to 6.30 | > 6.30 | – |
| O=C(CN1CCN(c2c(Br)cnc3[nH]cnc23)CC1)Nc1nccs1 [Example 10, 2-[4-(6-Bromo-3H-imidazo[4,5-b]pyridin-7-yl)-piperazin-1-yl]-N-thiazol-2-yl-acetamide] | 4.30 to 5.70 | 5.70 to 6.30 | – |
| CC(C)(C)OC(=O)NCc1cccc(-c2nc3c(N4CCN(CC(=O)Nc5nccs5)CC4)c(Br)cnc3[nH]2)c1 [Example 11, (3-{6-Bromo-7-[4-(thiazol-2-ylcarbamoylmethyl)-piperazin-1-yl]-3H-imidazo[4,5-b]pyridin-2-yl}-benzyl)-carbamic acid tert-butyl ester] | 5.70 to 6.30 | > 6.30 | – |
| NCc1cccc(-c2nc3c(N4CCN(CC(=O)Nc5nccs5)CC4)c(Br)cnc3[nH]2)c1 [Example 12, 2-{4-[2-(3-Aminomethyl-phenyl)-6-bromo-3H-imidazo[4,5-b]pyridin-7-yl]-piperazin-1-yl}-N-thiazol-2-yl-acetamide] | 4.30 to 5.70 | > 6.30 | – |
| CN(C)Cc1cccc(-c2nc3c(N4CCN(CC(=O)Nc5nccs5)CC4)c(Br)cnc3[nH]2)c1 [Example 13, 2-{4-[6-Bromo-2-(3-dimethylaminomethyl-phenyl)-3H-imidazo[4,5-b]pyridin-7-yl]-piperazin-1-yl}-N-thiazol-2-yl-acetamide] | 5.70 to 6.30 | > 6.30 | – |
| CC(c1ccccc1)N1CCN(c2c(Cl)cnc3[nH]c(-c4ccc(N(C)C)cc4)nc23)CC1 (stereo not shown) [Example 17, 4-(6-chloro-7-(4-(1-phenylethyl)piperazin-1-yl)-3H-imidazo[4,5-b]pyridin-2-yl)-N,N-dimethylaniline] | 5.70 to 6.30 | > 6.30 | – |
| COc1ccc(-c2nc3c(N4CCN(CC(=O)Nc5nccs5)CC4)c(Cl)cnc3[nH]2)cc1 [Example 19, 2-(4-(6-Chloro-2-(4-methoxyphenyl)-3H-imidazo[4,5-b]pyridin-7-yl)piperazin-1-yl)-N-(thiazol-2-yl)acetamide] | 5.70 to 6.30 | > 6.30 | – |
| CN(C)c1ccc(-c2nc3c(N4CCN(CC(=O)Nc5ccccc5)CC4)c(Br)cnc3[nH]2)cc1 [Example 20, 2-(4-(6-Bromo-2-(4-(dimethylamino)phenyl)-3H-imidazo[4,5-b]pyridin-7-yl)piperazin-1-yl)-N-phenylacetamide] | 5.70 to 6.30 | > 6.30 | – |
| CN(C)c1ccc(-c2nc3c(N4CCN(CC(=O)Nc5cccnc5)CC4)c(Br)cnc3[nH]2)cc1 [Example 21, 2-(4-(6-Bromo-2-(4-(dimethylamino)phenyl)-3H-imidazo[4,5-b]pyridin-7-yl)piperazin-1-yl)-N-(pyridin-3-yl)acetamide] | 5.70 to 6.30 | > 6.30 | – |
| CN(C)c1ccc(-c2nc3c(N4CCN(CC(=O)Nc5ccccc5)CC4)c(Cl)cnc3[nH]2)cc1 [Example 22, 2-(4-(6-Chloro-2-(4-(dimethylamino)phenyl)-3H-imidazo[4,5-b]pyridin-7-yl)piperazin-1-yl)-N-phenylacetamide] | 4.30 to 5.70 | > 6.30 | – |
| Cc1csc(NC(=O)CN2CCN(c3c(Cl)cnc4[nH]c(-c5ccc(N(C)C)cc5)nc34)CC2)n1 [Example 23, 2-(4-(6-Chloro-2-(4-(dimethylamino)phenyl)-3H-imidazo[4,5-b]pyridin-7-yl)piperazin-1-yl)-N-(4-methylthiazol-2-yl)acetamide] | 5.70 to 6.30 | > 6.30 | – |
| CN(C)c1ccc(-c2nc3c(N4CCN(CC(=O)Nc5cccc(Cl)c5)CC4)c(Cl)cnc3[nH]2)cc1 [Example 24, 2-(4-(6-Chloro-2-(4-(dimethylamino)phenyl)-3H-imidazo[4,5-b]pyridin-7-yl)piperazin-1-yl)-N-(3-chlorophenyl)acetamide] | 4.30 to 5.70 | > 6.30 | – |
| CN(C)c1ccc(-c2nc3c(N4CCN(CC(=O)N5CCCC5)CC4)c(Br)cnc3[nH]2)cc1 [Example 25, 2-(4-(6-Bromo-2-(4-(dimethylamino)phenyl)-3H-imidazo[4,5-b]pyridin-7-yl)piperazin-1-yl)-1-(pyrrolidin-1-yl)ethanone] | 4.30 to 5.70 | > 6.30 | – |
| CN(C)c1ccc(-c2nc3c(N4CCN(Cc5ccc(Cl)cc5)CC4)c(Br)cnc3[nH]2)cc1 [Example 26, 4-(6-Bromo-7-(4-(4-chlorobenzyl)piperazin-1-yl)-3H-imidazo[4,5-b]pyridin-2-yl)-N,N-dimethylaniline] | > 6.30 | > 6.30 | – |
| CN(C)c1ccc(-c2nc3c(N4CCN(Cc5cccnc5)CC4)c(Br)cnc3[nH]2)cc1 [Example 27, 4-(6-Bromo-7-(4-(pyridin-3-ylmethyl)piperazin-1-yl)-3H-imidazo[4,5-b]pyridin-2-yl)-N,N-dimethylaniline] | 5.70 to 6.30 | > 6.30 | – |
| COc1ccc(-c2nc3c(N4CCN(Cc5cccnc5)CC4)c(Br)cnc3[nH]2)cc1 [Example 28, 6-Bromo-2-(4-methoxyphenyl)-7-(4-(pyridin-3-ylmethyl)piperazin-1-yl)-3H-imidazo[4,5-b]pyridine] | 5.70 to 6.30 | > 6.30 | – |
| COc1cccc(-c2nc3c(N4CCN(CC(=O)Nc5nccs5)CC4)c(Br)cnc3[nH]2)c1 [Example 29] | 5.70 to 6.30 | > 6.30 | – |
| CN(C)c1ccc(-c2nc3c(N4CCN(Cc5ccccn5)CC4)c(Br)cnc3[nH]2)cc1 [Example 30, 4-(6-Bromo-7-(4-(pyridin-2-ylmethyl)piperazin-1-yl)-3H-imidazo[4,5-b]pyridin-2-yl)-N,N-dimethylaniline] | 4.30 to 5.70 | > 6.30 | – |
| CN(C)c1ccc(-c2nc3c(N4CCN(Cc5ccncc5)CC4)c(Br)cnc3[nH]2)cc1 [Example 31, 4-(6-Bromo-7-(4-(pyridin-4-ylmethyl)piperazin-1-yl)-3H-imidazo[4,5-b]pyridin-2-yl)-N,N-dimethylaniline] | 5.70 to 6.30 | > 6.30 | – |
| CC(C)CN1CCN(c2c(Br)cnc3[nH]c(-c4ccc(N(C)C)cc4)nc23)CC1 [Example 32, 4-(6-Bromo-7-(4-isobutylpiperazin-1-yl)-3H-imidazo[4,5-b]pyridin-2-yl)-N,N-dimethylaniline] | 5.70 to 6.30 | – | > 6.30 |
| CN(C)c1ccc(-c2nc3c(N4CCCN(Cc5ccc(F)cc5)CC4)c(Br)cnc3[nH]2)cc1 [Example 34, 4-(6-Bromo-7-(4-(4-fluorobenzyl)-1,4-diazepan-1-yl)-3H-imidazo[4,5-b]pyridin-2-yl)-N,N-dimethylaniline] | 4.30 to 5.70 | > 6.30 | – |
| COc1ccc(-c2nc3c(N4CCN(Cc5ccncc5)CC4)c(Cl)cnc3[nH]2)cc1 [Example 35, 6-Chloro-2-(4-methoxyphenyl)-7-(4-(pyridin-4-ylmethyl)piperazin-1-yl)-3H-imidazo[4,5-b]pyridine] | 5.70 to 6.30 | > 6.30 | – |
| COc1ccc(-c2nc3c(N4CCN(CC(C)C)CC4)c(Cl)cnc3[nH]2)cc1 [Example 36, 6-Chloro-7-(4-isobutylpiperazin-1-yl)-2-(4-methoxyphenyl)-3H-imidazo[4,5-b]pyridine] | > 6.30 | > 6.30 | – |
| COc1ccc(-c2nc3c(N4CCN(Cc5ccc(Cl)cc5)CC4)c(Cl)cnc3[nH]2)cc1 [Example 37, 6-Chloro-7-(4-(4-chlorobenzyl)piperazin-1-yl)-2-(4-methoxyphenyl)-3H-imidazo[4,5-b]pyridine] | 4.30 to 5.70 | > 6.30 | – |
